# Data: patent publication US9085561B2, “Cyclic urea- or lactam-substituted quinoxaline-type piperidines as ORL-1 modulators” (priority 2012, dated 2015)
# Marks after values point to notes of the source that are not given here.
# Legend:
# human CYP2D6 = human CYP2D6 (Homo sapiens, UniProt P10635); assay: Cytochrome P450 2D6 inhibition (dextromethorphan O-demethylation, pooled human hepatic microsome)
# [1] = target: human opioid receptor-like (ORL-1) (Homo sapiens, UniProt P41146); assay: In vitro ORL-1 receptor [35S]GTPγS functional assay; type: biochemical
# Chain of human opioid receptor-like (ORL-1) (P41146 whole entry): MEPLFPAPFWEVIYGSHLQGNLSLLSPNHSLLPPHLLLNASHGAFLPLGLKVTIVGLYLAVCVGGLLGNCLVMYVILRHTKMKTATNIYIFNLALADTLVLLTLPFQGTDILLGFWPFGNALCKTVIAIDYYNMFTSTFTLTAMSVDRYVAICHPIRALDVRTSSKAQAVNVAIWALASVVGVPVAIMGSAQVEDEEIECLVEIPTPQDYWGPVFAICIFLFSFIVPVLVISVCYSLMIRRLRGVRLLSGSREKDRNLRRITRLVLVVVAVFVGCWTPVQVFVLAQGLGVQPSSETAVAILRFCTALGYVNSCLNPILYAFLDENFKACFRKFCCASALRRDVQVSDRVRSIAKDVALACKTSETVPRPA
# [2] = system: mechanical hyperalgesia in rats subjected to partial sciatic nerve ligation; assay: Seltzer model (partial sciatic nerve ligation) of neuropathic pain, paw pressure assay (PWT); type: in vivo, rat; details: for maximum analgesic efficacy of pregabalin (10 mg/kg) as fraction of % reversal of Compound B9a: 3 hours after day 1 administration
# Chain of human CYP2D6 (P10635 whole entry): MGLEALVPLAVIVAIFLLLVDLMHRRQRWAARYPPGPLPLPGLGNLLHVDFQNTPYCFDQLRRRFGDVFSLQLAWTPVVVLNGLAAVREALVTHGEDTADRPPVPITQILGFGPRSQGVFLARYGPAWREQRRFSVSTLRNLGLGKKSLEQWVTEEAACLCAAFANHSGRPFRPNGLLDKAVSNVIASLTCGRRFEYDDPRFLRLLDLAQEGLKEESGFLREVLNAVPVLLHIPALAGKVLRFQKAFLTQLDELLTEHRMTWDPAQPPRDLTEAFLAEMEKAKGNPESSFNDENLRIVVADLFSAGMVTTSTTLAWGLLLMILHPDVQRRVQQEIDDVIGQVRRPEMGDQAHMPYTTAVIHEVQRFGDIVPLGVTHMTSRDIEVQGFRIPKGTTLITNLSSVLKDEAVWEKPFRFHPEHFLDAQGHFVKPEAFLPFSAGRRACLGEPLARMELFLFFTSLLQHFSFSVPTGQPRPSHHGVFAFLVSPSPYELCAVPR
structure (smiles),measurement,setting,value
"Nc1ccn(-c2nc3ccccc3n([C@H]3C[C@H]4CCC[C@@H](C3)N4[C@H]3C[C@@H]4CCC[C@@H](C4)C3)c2=O)c(=O)n1 [B5a(i), 1-((1R,1′R,3r,3′R,5S,5′S)-[3,9′-bi(9′-azabicyclo[3.3.1]nonan)]-3′-yl)-3-(4-amino-2-oxopyrimidin-1(2H)-yl)quinoxalin-2(1H)-one]",IC50,human CYP2D6,> 20 µM
same,EC50,[1],> 20 µM
"O=C(O)Cn1cccc(-c2nc3ccccc3n([C@H]3C[C@H]4CCC[C@@H](C3)N4C3CCCCCCCCC3)c2=O)c1=O [BB13c(iii), 2-(3-(4-((1R,3r,5S)-9-cyclodecyl-9-azabicyclo[3.3.1]nonan-3-yl)-3-oxo-3,4-dihydroquinoxalin-2-yl)-2-oxopyridin-1(2H)-yl)acetic acid]",IC50,human CYP2D6,> 20 µM
same,EC50,[1],0.101 ± 0.02 µM
"O=c1cnn(-c2nc3ccccc3n([C@H]3C[C@H]4CC[C@@H](C3)N4[C@H]3C[C@@H]4CCC[C@@H](C4)C3)c2=O)c(=O)[nH]1 [Compound A9a, 2-(4-((1R,3R,5S)-8-((1R,3r,5S)-bicyclo[3.3.1]nonan-3-yl)-8-azabicyclo[3.2.1]octan-3-yl)-3-oxo-3,4-dihydroquinoxalin-2-yl)-1,2,4-triazine-3,5(2H,4H)-dione]",IC50,human CYP2D6,> 20 µM
same,EC50,[1],0.378 ± 0.055 µM
O=c1cnn(-c2nc3ccccc3n([C@H]3C[C@H]4CCC[C@@H](C3)N4[C@H]3C[C@@H]4CCC[C@@H](C4)C3)c2=O)c(=O)[nH]1 [Compound B9a],reversal compared with the pregabalin control,"[2]; 1, 3, or 10 mg/kg, all measured time-points on the first day of administration",more effective reversal than the pregabalin control
same,effects against mechanical hyperalgesia,"[2]; once daily administration (3 or 10 mg/kg) for seven days, rats with partial sciatic nerve ligation",statistically significant effects
same,% Reversal [mean],"[2]; rat Seltzer model, oral 1 mg/kg, 1 h after administration (day 1)",27.0* %
same,% Reversal [mean],"[2]; rat Seltzer model, oral 1 mg/kg, 3 h after administration (day 1), 1 mg/kg",37.0%
same,% Reversal [mean],"[2]; rat Seltzer model, oral 1 mg/kg, 5 h after administration (day 1)",27.0* %
same,% Reversal [mean],"[2]; rat Seltzer model, oral 1 mg/kg, pre-administration",0%
same,% Reversal [mean],"[2]; rat Seltzer model, oral 3 mg/kg once daily, 1 h after administration (day 4)",40.8** %
same,% Reversal [mean],"[2]; rat Seltzer model, oral 3 mg/kg once daily, 1 h after administration (day 7)",47.7** %
same,% Reversal [mean],"[2]; rat Seltzer model, oral 3 mg/kg once daily, 3 h after administration (day 4), 3 mg/kg",46.2%
same,% Reversal [mean],"[2]; rat Seltzer model, oral 3 mg/kg once daily, 3 h after administration (day 7), 3 mg/kg",55.2%
same,% Reversal [mean],"[2]; rat Seltzer model, oral 3 mg/kg once daily, 5 h after administration (day 4)",36.9** %
same,% Reversal [mean],"[2]; rat Seltzer model, oral 3 mg/kg once daily, 5 h after administration (day 7)",42.2** %
same,% Reversal [mean],"[2]; rat Seltzer model, oral 3 mg/kg, 1 h after administration (day 1)",33.1** %
same,% Reversal [mean],"[2]; rat Seltzer model, oral 3 mg/kg, 3 h after administration (day 1), 3 mg/kg",46.2%
same,% Reversal [mean],"[2]; rat Seltzer model, oral 3 mg/kg, 5 h after administration (day 1)",34.6** %
same,% Reversal [mean],"[2]; rat Seltzer model, oral 3 mg/kg, pre-administration",0%
same,% Reversal [mean],"[2]; rat Seltzer model, oral 10 mg/kg once daily, 1 h after administration (day 4)",53.8** %
same,% Reversal [mean],"[2]; rat Seltzer model, oral 10 mg/kg once daily, 1 h after administration (day 7)",50.0** %
same,% Reversal [mean],"[2]; rat Seltzer model, oral 10 mg/kg once daily, 3 h after administration (day 4), 10 mg/kg",64.2%
same,% Reversal [mean],"[2]; rat Seltzer model, oral 10 mg/kg once daily, 3 h after administration (day 7), 10 mg/kg",63.5%
same,% Reversal [mean],"[2]; rat Seltzer model, oral 10 mg/kg once daily, 5 h after administration (day 4)",47.7** %
same,% Reversal [mean],"[2]; rat Seltzer model, oral 10 mg/kg once daily, 5 h after administration (day 7)",42.2** %
same,% Reversal [mean],"[2]; rat Seltzer model, oral 10 mg/kg, 1 h after administration (day 1)",49.2** %
same,% Reversal [mean],"[2]; rat Seltzer model, oral 10 mg/kg, 3 h after administration (day 1), 10 mg/kg",61.5%
same,% Reversal [mean],"[2]; rat Seltzer model, oral 10 mg/kg, 5 h after administration (day 1)",46.9** %
same,% Reversal [mean],"[2]; rat Seltzer model, oral 10 mg/kg, pre-administration",0%
same,tolerance development with repeated administration,"[2]; repeated administration for 7 days, rat Seltzer model",lack of tolerance development
same,IC50,human CYP2D6,> 20 µM
"Cc1nn(-c2nc3ccccc3n([C@H]3C[C@H]4CCC[C@@H](C3)N4[C@H]3C[C@@H]4CCC[C@@H](C4)C3)c2=O)c(=O)[nH]c1=O [Compound B10a, 2-(4-((1R,1′R,3r,3′R,5S,5′S)-[3,9′-bi(9′-azabicyclo[3.3.1]nonan)]-3′-yl)-3-oxo-3,4-dihydroquinoxalin-2-yl)-6-methyl-1,2,4-triazine-3,5(2H,4H)-dione]",IC50,human CYP2D6,> 20 µM
same,EC50,[1],> 20 µM
"O=c1ccn(-c2nc3ccccc3n([C@H]3C[C@H]4CCC[C@@H](C3)N4[C@H]3C[C@@H]4CCC[C@@H](C4)C3)c2=O)c(=O)[nH]1 [Compound B13a, 1-(4-((1R,1′R,3r,3′R,5S,5′S)-[3,9′-bi(9′-azabicyclo[3.3.1]nonan)]-3′-yl)-3-oxo-3,4-dihydroquinoxalin-2-yl)pyrimidine-2,4(1H,3H)-dione]",IC50,human CYP2D6,> 20 µM
same,EC50,[1],> 20 µM
"O=C1CN(c2nc3ccccc3n([C@H]3C[C@H]4CCC[C@@H](C3)N4[C@H]3C[C@@H]4CCC[C@@H](C4)C3)c2=O)C(=O)N1 [Compound B17a, 1-(4-((1R,1′R,3r,3′R,5S,5′S)-[3,9′-bi(9′-azabicyclo[3.3.1]nonan)]-3′-yl)-3-oxo-3,4-dihydroquinoxalin-2-yl)imidazolidine-2,4-dione]",IC50,human CYP2D6,> 20 µM
same,EC50,[1],> 20 µM
"CC1(C)C(=O)NC(=O)N1c1nc2ccccc2n([C@H]2C[C@H]3CCC[C@@H](C2)N3[C@H]2C[C@@H]3CCC[C@@H](C3)C2)c1=O [Compound B19a, 1-(4-((1R,1′R,3r,3′R,5S,5′S)-[3,9′-bi(9′-azabicyclo[3.3.1]nonan)]-3′-yl)-3-oxo-3,4-dihydroquinoxalin-2-yl)-5,5-dimethylimidazolidine-2,4-dione]",IC50,human CYP2D6,> 20 µM
same,EC50,[1],> 20 µM
"O=C1CNC(=O)N1c1nc2ccccc2n([C@H]2C[C@H]3CCC[C@@H](C2)N3[C@H]2C[C@@H]3CCC[C@@H](C3)C2)c1=O [Compound B20a, 3-(4-((1R,1′R,3r,3′R,5S,5′S)-[3,9′-bi(9′-azabicyclo[3.3.1]nonan)]-3′-yl)-3-oxo-3,4-dihydroquinoxalin-2-yl)imidazolidine-2,4-dione]",IC50,human CYP2D6,> 20 µM
same,EC50,[1],> 20 µM
"O=c1[nH]cnn1-c1nc2ccccc2n([C@H]2C[C@H]3CCC[C@@H](C2)N3[C@H]2C[C@@H]3CCC[C@@H](C3)C2)c1=O [Compound B23a, 1-((1R,3r,3′R,5S,5′S)-[3,9′-bi(9′-azabicyclo[3.3.1]nonan)]-3′-yl)-3-(5-oxo-4,5-dihydro-1H-1,2,4-triazol-1-yl)quinoxalin-2(1H)-one]",IC50,human CYP2D6,17.8 µM
same,EC50,[1],> 20 µM
"O=c1cnn(-c2nc3ccccc3n([C@H]3C[C@H]4CCC[C@@H](C3)N4C3CCCCCCC3)c2=O)c(=O)[nH]1 [Compound H9c, 2-(4-((1R,3r,5S)-9-cyclooctyl-9-azabicyclo[3.3.1]nonan-3-yl)-3-oxo-3,4-dihydroquinoxalin-2-yl)-1,2,4-triazine-3,5(2H,4H)-dione]",IC50,human CYP2D6,> 20 µM
same,EC50,[1],0.376 ± 0.016 µM
"CC(C)C[C@H](CN)CC(=O)O [Pregabalin, pregabalin, reference compound]",% Reversal [mean],"[2]; rat Seltzer model, positive control column, oral 10 mg/kg, 3 h after administration (day 1), 10 mg/kg",28.0** %
same,% Reversal [mean],"[2]; rat Seltzer model, positive control column, oral 10 mg/kg, 3 h after administration (day 1), listed as pregabalin, 10 mg/kg",28.0%
same,% Reversal [mean],"[2]; rat Seltzer model, positive control, oral 10 mg/kg, 1 h after administration (day 1)",17.0%
same,% Reversal [mean],"[2]; rat Seltzer model, positive control, oral 10 mg/kg, 5 h after administration (day 1)",15.0%
same,% Reversal [mean],"[2]; rat Seltzer model, positive control, oral 10 mg/kg, pre-administration",0%
same,maximum analgesic efficacy of pregabalin (10 mg/kg) as fraction of % reversal of Compound B9a,[2]; versus B9a 1 mg/kg,about 0.76
same,maximum analgesic efficacy of pregabalin (10 mg/kg) as fraction of % reversal of Compound B9a,[2]; versus B9a 3 mg/kg,about 0.61
same,maximum analgesic efficacy of pregabalin (10 mg/kg) as fraction of % reversal of Compound B9a,[2]; versus B9a 10 mg/kg,about 0.46
"O=C(O)Cn1cccc(-c2nc3ccccc3n([C@H]3C[C@H]4CCC[C@@H](C3)N4[C@H]3C[C@@H]4CCC[C@@H](C4)C3)c2=O)c1=O [R15a(iii), 2-(3-(4-((1R,1′R,3r,3′R,5S,5′S)-[3,9′-bi(9′-azabicyclo[3.3.1]nonan)]-3′-yl)-3-oxo-3,4-dihydroquinoxalin-2-yl)-2-oxopyridin-1(2H)-yl)acetic acid]",IC50,human CYP2D6,> 20 µM
"C[C@@H]1C[C@@H]2C[C@H](C1)C[C@@H](N1[C@@H]3CCC[C@H]1C[C@@H](n1c(=O)c(-c4cc(C(=O)O)c[nH]c4=O)nc4ccccc41)C3)C2 [R28a(i), 5-(4-((1R,1′R,3r,3′R,5S,5′S,7S)-7-methyl-[3,9′-bi(9′-azabicyclo[3.3.1]nonan)]-3′-yl)-3-oxo-3,4-dihydroquinoxalin-2-yl)-6-oxo-1,6-dihydropyridine-3-carboxylic acid]",IC50,human CYP2D6,> 20 µM
"CC1(C)[C@H]2CC[C@@H](CCN3[C@@H]4CCC[C@H]3C[C@@H](n3c(=O)c(-c5ccc[nH]c5=O)nc5ccccc53)C4)[C@@H]1C2 [U55a(i), 1-((1R,3S,5S)-9-(2-((1S,2S,5S)-6,6-dimethylbicyclo[3.1.1]heptan-2-yl)ethyl)-9-azabicyclo[3.3.1]nonan-3-yl)-3-(2-oxo-1,2-dihydropyridin-3-yl)quinoxalin-2(1H)-one]",IC50,human CYP2D6,> 20 µM
